According to PubChem BioAssay (NCI):
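Interpolation was linear, between the two tested concentrations surrounding the appropriate level; five concentrations were tested over 48 hours in 96-well plates. TGI is the concentration that stops growth completely.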

Assays:
Assay in all cases: NCI-60 cell line screen, 48 h
SN12C renal = system: SN12C renal
RXF 393 renal = system: RXF 393 renal
HS 578T breast = system: HS 578T breast
SNB-75 CNS = system: SNB-75 CNS
SF-539 CNS = system: SF-539 CNS
786-0 renal = system: 786-0 renal
HOP-92 NSCLC = system: HOP-92 NSCLC
MDA-N = system: MDA-N
UO-31 renal = system: UO-31 renal
NCI-H226 lung = system: NCI-H226 lung
COLO 205 colon = system: COLO 205 colon

SMILES	TGI (SN12C renal) [µM]	TGI (RXF 393 renal) [µM]	TGI (HS 578T breast) [µM]	TGI (SNB-75 CNS) [µM]	TGI (SF-539 CNS) [µM]	TGI (786-0 renal) [µM]	TGI (HOP-92 NSCLC) [µM]	TGI (MDA-N) [µM]	TGI (UO-31 renal) [µM]	TGI (NCI-H226 lung) [µM]	TGI (COLO 205 colon) [µM]
CCOC1C=CC(=O)C(CO)O1 (configuration not stated)	26.8	24.2	49	33.5	23.8	14.2	8.29	31.5	4.77	46.3	30.4
CC(C)NC(=O)OCc1c(COC(=O)NC(C)C)n(C)c2c1ccc1sccc12	76.2	39.9	34.6	32.4	26	36.8	27.3	42.8	68.7	> 30.1	37.9
Cc1nc2ccc(Cl)cc2c(-n2ccnc2)c1CCn1ccnc1	> 100	53.1	49.1	72.8	> 100	3.2	57.8	84.7	74.6	53.2	41.5
COC(=O)/C=C(/C=C1/C(C#N)=C(N)N(c2ccc(Cl)cc2)C1(C)/C(=C\C(=O)OC)C(=O)OC)C(=O)OC (configuration not stated)	37.6	35.4	> 100	63.3	32.7	32.7	48	30.8	41.2	86.4	29.8
CC(C)Oc1cccc(N2C(n3ccnc3)=Nc3ccncc3S2(=O)=O)c1	29.2	28.9	38.5	33.3	20.1	22.1	25.7	25.4	38.3	42.5	24.7
CC1(C)CC(=O)C2=C(C1)C(c1ccccc1Cl)C1C(=O)CC(C)(C)CC1(O)O2 (configuration not stated)	> 100	> 100	> 100	> 100	> 100	> 100	> 100	> 100	> 100	> 100	> 31.6
O=CC(I)=C(c1ccccc1)c1ccccc1	45.3	41.4	63	> 52.7	45.3	28.9	38.1	35.4	29.1	57	32.4
[N-]=[N+]=CC(=O)C1CCCN1C(=O)c1ccccc1 (configuration not stated)	> 10	> 10	> 10	8.26	> 10	> 10	> 10	> 10	> 10	> 10	> 10
CCOC(=O)CSc1nc(N)c2c(-c3ccccc3)c3c(nc2n1)CCCC3	> 100	> 100	> 100	> 100	> 100	> 100	> 100	> 100	> 100	> 100	> 100
Clc1cccc(-c2sc(-c3cccs3)cc2Cc2cccs2)c1	> 10	> 10	> 10	> 10	> 10	> 10	> 10	> 10	> 10	> 10	> 10
S=C(Cc1ccc2c(c1)Sc1ccccc1O2)N1CCOCC1	> 100	> 100	61.6	60.6	61.1	> 100	> 100	> 100	> 100	> 100	> 100
O=C(CC(NC(=O)C(F)(F)F)C(=O)O)OCc1ccccc1 (configuration not stated)	> 100	> 100	> 100	> 100	> 100	> 100	> 100	> 100	> 100	> 100	> 100
Cn1c2ccccc2c2ccc3c(c21)C(=O)c1ccc2c4ccccc4n(C)c2c1C3=O	> 100	> 100	> 100	> 100	> 100	> 100	> 100	> 100	> 100	> 100	> 100
Cc1ccc2cccc(-c3cccc4ccccc34)c2n1	> 100	35.7	81.9	48.2	> 100	> 100	62.1	22.7	51.4	74.5	> 100
C[C@@H]1CC[C@@]2(C)C(C(=O)O)=CCCC2[C@@]1(C)CC(=O)c1ccoc1 (some centres not stated)	> 25	> 25	> 25	> 25	> 25	> 25	> 25	> 25	> 25	> 25	> 25
COc1ccc2nc(NC(=O)/C(C#N)=C/c3ccccc3)sc2c1	> 100	> 100	> 100	> 87.8	> 100	> 100	> 100	> 100	> 100	> 100	> 100
O=C(/C=C/c1ccc(Cl)cc1)Oc1ccc(C=C2CCC/C(=C\c3ccc(OC(=O)/C=C/c4ccc(Cl)cc4)cc3)C2=O)cc1	> 100	> 100	> 100	> 100	> 100	> 100	> 100	> 100	> 100	> 100	> 100
